Our source for the IC50 values is ChEMBL document CHEMBL4411258, “Novel natural compounds from endophytic fungi with anticancer activity” (Eur J Med Chem, 2018).

In brackets after ≈: the same amount, converted by molar mass. Bounds are passed on as bounds.

Experiment [1] deals with HL-60. Put plainly: Cytotoxicity against human HL60 cells by trypan blue staining based assay. Type of experiment: functional, cell-based.
Experiment [2] is described as follows: Inhibition of RANKL-induced NFkappaB (unknown origin) activation expressed in mouse RAW264.7 cells preincubated for 1 hr followed by RANKL stimulation and measured after 6 hrs by luciferase reporter gene based assay. The format is cell-based. A general note: In a reporter assay the amount or activity of a reporter protein is the signal.
Experiment [3] has as its system HL-60. Put plainly: Cytotoxicity against human HL60 cells by MTT assay. The format is functional, cell-based. (Tetrazolium assays rely on reduction of a dye to a coloured formazan, in cell work by metabolically active cells.)
The test system of experiment [4] is HepG2. In words: Cytotoxicity against human HepG2 cells by MTT assay. Type of experiment: functional, cell-based.
The test system of experiment [5] is PC-3. In words: Cytotoxicity against human PC3 cells by MTT assay. The format is functional, cell-based.
In experiment [6] the test system is L02. In words: Cytotoxicity against human L02 cells by MTS assay. The format is cell-based.
The subject of experiment [7] is A549. In words: Cytotoxicity against human A549 cells by MTS assay. Type of experiment: functional, cell-based.
Experiment [8] deals with NCI-H446. In words: Cytotoxicity against human NCI-H446 cells by MTS assay. Type of experiment: functional, cell-based.
In experiment [9] the test system is HeLa. Put plainly: Cytotoxicity against human HeLa cells by MTS assay. The format is functional, cell-based.
Experiment [10] has as its system Huh-7. Put plainly: Cytotoxicity against human HuH7 cells by MTS assay. The format is functional, cell-based.
A short description of experiment [11]: Cytotoxicity against mouse LM3 cells by MTS assay. The format is functional, cell-based.
Experiment [12] relates to MCF7. In words: Cytotoxicity against human MCF7 cells by MTS assay. Type of experiment: functional, cell-based.
Experiment [13] concerns SW1990. In words: Cytotoxicity against human SW1990 cells by MTS assay. Type of experiment: functional, cell-based.
The test system of experiment [14] is BT-549. In words: Cytotoxicity against human BT549 cells after 48 hrs by neutral red dye based assay. The format is functional, cell-based. The settings on record: BT-549, 48 h.
Experiment [15] has as its system SK-OV-3. In words: Cytotoxicity against human SKOV3 cells after 48 hrs by neutral red dye based assay. The settings on record: SK-OV-3, 48 h. The format is functional, cell-based.
Experiment [16] concerns A549. In words: Cytotoxicity against human A549 cells after 72 hrs by MTT assay. Type of experiment: functional, cell-based. The settings on record: A549, 72 h.
The test system of experiment [17] is Raji. In words: Cytotoxicity against human Raji cells after 72 hrs by MTT assay. Type of experiment: functional, cell-based.
In experiment [18] the test system is HepG2. Put plainly: Cytotoxicity against human HepG2 cells after 72 hrs by MTT assay. The format is functional, cell-based. The settings on record: HepG2, 72 h.
Experiment [19] concerns MCF7. In words: Cytotoxicity against human MCF7 cells after 72 hrs by MTT assay. The format is functional, cell-based. The following applies: MCF7, 72 h.
Experiment [20] concerns HL-60. In words: Cytotoxicity against human HL60 cells after 72 hrs by MTT assay. Type of experiment: functional, cell-based. The following applies: HL-60, 72 h.
Experiment [21] relates to SH-SY5Y. In words: Cytotoxicity against human SH-SY5Y cells by MTT assay. The format is functional, cell-based.
In experiment [22] the test system is NB-4. Put plainly: Cytotoxicity against human NB4 cells by MTT assay. The format is functional, cell-based.
Experiment [23] deals with MDA-MB-435. In words: Cytotoxicity against human MDA-MB-435 cells by MTT assay. Type of experiment: functional, cell-based.
The subject of experiment [24] is SGC-7901. Put plainly: Cytotoxicity against human SGC7901 cells by MTT assay. The format is functional, cell-based.
The test system of experiment [25] is A549. Put plainly: Cytotoxicity against human A549 cells by MTT assay. Type of experiment: functional, cell-based.
In experiment [26] the test system is MCF7. In words: Cytotoxicity against human MCF7 cells by MTT assay. The format is functional, cell-based.
The test system of experiment [27] is NCI-H187. In words: Cytotoxicity against human NCI-H187 cells by resazurin microplate assay. The format is functional, cell-based. In general terms: Resazurin is reduced to fluorescent resorufin, in cell work by metabolically active cells.
Experiment [28] has as its system Vero. Put plainly: Cytotoxicity against African green monkey Vero cells by resazurin microplate assay. The format is cell-based. The following applies: Chlorocebus sabaeus.

A word on the IC50: it is the midpoint of a concentration-inhibition curve. In the case of `CC(C)=CC/C=C(/C)[C@H]1CC[C@@]2(C)OC3=C(C[C@@H]12)C(=O)CC[C@@H]3O`, in [1], the half-maximal inhibitory concentration (IC50) was determined as 30.6 µM.
Consider `COC(=O)c1cc(OC)cc2c1C(=O)[C@@H]([C@@H](O)CC(C)=O)CO2`, for which, in experiment [2], the IC50 was in the range of 30 to 46 µM.
The compound `CC1=C(C)C2=CC(=O)C3=C(C(=O)c4oc(C)cc4C3=O)[C@@]2(C)CC1=O` registered a 50% inhibitory concentration (IC50) in experiment [3] of 12.5 µM.
For the compound `CC(C)CCC[C@@H](C)[C@H]1CC[C@H]2[C@@H]3CC[C@H]4C[C@@H](O[C@@H]5O[C@H](CO)[C@@H](O)[C@H](O)[C@H]5O)CC[C@]4(C)[C@H]3CC[C@]12C`, the results for the half-maximal inhibitory concentration (IC50) in experiment [4], in experiment [5] and in experiment [6] were 5.5 µM, 6.1 µM and 4.7 µM, respectively.
`CO[C@H]1CCC(=O)c2c([C@@H]3CCC(=O)c4c(O)cccc43)ccc(O)c21`: the IC50 in [7], in experiment [8], in experiment [9], in [10], in [6] and in experiment [11] was 1 to 20 µM throughout. Also, the half-inhibitory concentration (IC50) in [12] and in experiment [13] was 1 to 20 µM in each case.
Consider `C=C(CC[C@@H](C)[C@H]1CC=C2C3=C([C@@H](O)[C@H](OC(C)=O)[C@@]21C)[C@@]1(C)C[C@@H](O)[C@H](OC(C)=O)C(C)(C)[C@@H]1CC3)C(C)C`, for which the half-maximal inhibitory concentration (IC50) was 1.97 µg/mL in experiment [14] and 0.16 µg/mL in [15].
As for `C[C@@H](N)C(=O)Nc1ccccc1C(=O)N[C@@H](O)CCS`, the IC50 is 0.4 µM in experiment [14] and 0.8 µM in [15].
As to `CCC(=O)Cc1c(OC)cc(=O)oc1C`, the IC50 in [16], in experiment [17], in experiment [18], in [19] and in experiment [20] was 1 to 26.8 µg/mL (≈ 4.76 to 127 µM) throughout.
With `COC(=O)[C@]1(Cc2ccc(O)c(CC(C)=O)c2)OC(=O)C(O)=C1c1ccc(OC)cc1`, the half-inhibitory concentration (IC50) in experiment [4], in experiment [21], in experiment [22] and in experiment [6] was < 10 µM throughout.
Turning to `COC1=CC(=O)OC2C1[C@H](O)CO[C@H]2O` (some centres not stated), the IC50 in [16], in experiment [17], in [18], in experiment [19] and in experiment [20] was 1 to 26.8 µg/mL (≈ 4.63 to 124 µM) in each case.
Regarding `CC1=C[C@@H]2/C=C/C[C@H](C)/C=C(\C)C(=O)C(=O)/C=C/C(=O)[C@]23C(=O)N[C@H]2Cc4c([nH]c5ccccc45)[C@@]1(C)[C@@H]23`, the results for the 50% inhibitory concentration (IC50) in experiment [23], in experiment [24] and in [25] were 4.65 µM, 5.32 µM and 8.73 µM, respectively.
Turning to `COC(=O)c1cc(OC)cc2c1C(=O)[C@H]([C@@H](O)CC(C)=O)CO2`, in experiment [2], the IC50 is 30 to 46 µM.
As for `CC1=C[C@@H]2/C=C/C[C@H](C)/C=C(\C)CC(=O)/C=C/C(=O)[C@]23C(=O)N[C@@H](Cc2c[nH]c4ccccc24)[C@@H]3[C@@H]1C` [PROCHEATOGLOBOSIN II], the 50% inhibitory concentration (IC50) was determined as 36.9 µM in experiment [23], 37.7 µM in experiment [24] and 35.9 µM in experiment [25].
`Cc1cc2c(c3c1C(=O)Oc1c(C)c4c(c(O)c1O3)C(=O)OC4)CO2` had a 50% inhibitory concentration (IC50) in experiment [8] of 63 µM.
As to `COC(=O)[C@@H]1c2c(oc3cc(C)cc(OC)c3c2=O)C=C[C@H]1O`, the 50% inhibitory concentration (IC50) in experiment [25] amounted to 8.2 µM; in experiment [21], 7.8 µM; in experiment [5], 6.9 µM; in [26], 8.4 µM.
For `COC(=O)c1cc(O)cc2oc3c(c(=O)c12)[C@@H](OC)O[C@H](C)C3`, the IC50 in [2] was 30 to 46 µM.
Regarding `C=C(CC[C@@H](C)[C@H]1CC=C2C3=C([C@@H](O)[C@H](OC(C)=O)[C@@]21C)[C@@]1(C)C[C@@H](O)[C@H](OC(=O)CCCCCCCCCO)C(C)(C)[C@@H]1CC3)C(C)C`, the half-inhibitory concentration (IC50) in [14] was determined as 1.76 µg/mL; in experiment [15] it was 0.12 µg/mL.
With `O=C1CC[C@@H](c2ccc(O)c3c2C(=O)CC[C@H]3O)c2cccc(O)c21`, the 50% inhibitory concentration (IC50) in [7], in [8], in [9], in [10], in experiment [6] and in experiment [11] was 1 to 20 µM in each case. In addition, the IC50 in experiment [12] and in [13] was 1 to 20 µM in each case.
As for `C[C@@H]1CC[C@@H]2[C@H](C=C[C@H]3[C@H](/C=C/[C@H](C)O)OC(=O)[C@@]23C)C1`, the IC50 amounted to 17.8 µg/mL (≈ 61.2 µM) in experiment [27] and 31.5 µg/mL (≈ 108 µM) in experiment [28].
